This is an account of results in ChEMBL document CHEMBL5131376, “Kinase Inhibitors as Underexplored Antiviral Agents” (J Med Chem, 2022).

SMILES strings stand for the structures.

The target in data set [1] is BMP-2-inducible protein kinase (Homo sapiens, UniProt Q9NSY1). Briefly: Binding affinity to BIKE (unknown origin) assessed as dissociation constant.
Another data set deals with Zika virus. Briefly: Antiviral activity against ZIKV infected in human SNB-19 cells. The class given is functional, organism-based.
Data set [2] deals with Cyclin-dependent kinase 2 (Homo sapiens, UniProt P24941). Kind of data set: Inhibition of CDK2 (unknown origin).
The target of data set [3] is AP2-associated protein kinase 1 (Homo sapiens, UniProt Q2M2I8). Kind of data set: Binding affinity to AAK1 (unknown origin) assessed as dissociation constant.
AP2-associated protein kinase 1, sequence (Q2M2I8 whole entry): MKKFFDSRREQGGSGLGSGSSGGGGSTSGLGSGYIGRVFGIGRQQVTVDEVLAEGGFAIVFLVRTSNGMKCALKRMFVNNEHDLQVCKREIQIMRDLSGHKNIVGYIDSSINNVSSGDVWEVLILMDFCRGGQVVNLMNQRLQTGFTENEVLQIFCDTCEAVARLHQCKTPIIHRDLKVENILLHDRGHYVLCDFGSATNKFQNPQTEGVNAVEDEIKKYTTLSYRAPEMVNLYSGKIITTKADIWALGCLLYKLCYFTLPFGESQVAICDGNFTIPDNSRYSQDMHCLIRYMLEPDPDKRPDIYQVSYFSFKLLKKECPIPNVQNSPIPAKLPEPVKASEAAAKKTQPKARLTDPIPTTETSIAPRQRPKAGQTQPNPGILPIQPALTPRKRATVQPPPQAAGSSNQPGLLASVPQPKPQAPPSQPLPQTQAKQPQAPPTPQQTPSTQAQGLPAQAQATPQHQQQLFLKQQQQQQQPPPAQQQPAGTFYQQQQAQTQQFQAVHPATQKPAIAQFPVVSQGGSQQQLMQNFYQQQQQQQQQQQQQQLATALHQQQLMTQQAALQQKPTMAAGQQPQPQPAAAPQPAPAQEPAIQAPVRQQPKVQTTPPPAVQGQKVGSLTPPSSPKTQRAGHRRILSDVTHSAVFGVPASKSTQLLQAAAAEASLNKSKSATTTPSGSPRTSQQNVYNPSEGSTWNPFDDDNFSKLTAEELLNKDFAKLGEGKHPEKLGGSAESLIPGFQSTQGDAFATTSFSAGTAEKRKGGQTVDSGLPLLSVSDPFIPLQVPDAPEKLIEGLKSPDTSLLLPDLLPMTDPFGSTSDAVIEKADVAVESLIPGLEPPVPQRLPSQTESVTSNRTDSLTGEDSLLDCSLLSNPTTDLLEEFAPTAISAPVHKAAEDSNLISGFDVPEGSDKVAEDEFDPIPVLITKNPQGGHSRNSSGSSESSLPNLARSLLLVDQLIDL
The target of data set [4] is Cyclin-G-associated kinase (Homo sapiens, UniProt O14976). Briefly: Binding affinity to GAK (unknown origin) assessed as dissociation constant.
In the next data set the test system is Human alphaherpesvirus 1. Kind of data set: Antiviral activity against HSV-1 infected in African green monkey Vero cells assessed as inhibition of viral replication. Type of data set: functional, organism-based. As to conditions: Human alphaherpesvirus 1, Vero.
The target in data set [5] is Tyrosine-protein kinase ABL1 (Homo sapiens, UniProt P00519).
Another data set concerns dengue virus type 1. Kind of data set: Antiviral activity against DENV 1 infected in hamster BHK-21 cells assessed as focus formation measured after 5 days. Type of data set: functional, organism-based. The note with it: BHK-21, 120 h.
A further data set deals with dengue virus type 2. Kind of data set: Antiviral activity against DENV 2 infected in african green monkey Vero cells assessed as focus formation measured after 6 days. The class given is functional, organism-based. The note with it: 144 h.
Another data set has as its system dengue virus type 3. Briefly: Antiviral activity against DENV 3 infected in african green monkey Vero cells assessed as focus formation measured after 6 days. As to conditions: 144 h. The class given is functional, organism-based.
The test system of the next data set is dengue virus type 4. Kind of data set: Antiviral activity against DENV 4 infected in african green monkey Vero cells assessed as focus formation measured after 6 days. Type of data set: functional, organism-based. As to conditions: 144 h.
Data set [6] has as its target 1-phosphatidylinositol 3-phosphate 5-kinase (Homo sapiens, UniProt Q9Y2I7). Kind of data set: Inhibition of PIKFYVE (unknown origin).
A short description of data set [7]: Cytotoxicity against human […] cells. The class given is toxicity, cell-based. The note with it: U2OS cells.
The test system of a further data set is SARS-CoV-2. Briefly: Antiviral activity against SARS-CoV-2 infected in african green monkey Vero cells incubated for 72 hrs by celltitre-glo luminescent assay. The note with it: Severe acute respiratory syndrome coronavirus 2, Vero. The class given is functional, organism-based.
Data set [8] can be described thus: Cytotoxicity against african green monkey Vero cells. The class given is toxicity, cell-based. The note with it: chlorocebus sabaeus.
Data set [9] deals with Human immunodeficiency virus 1. Kind of data set: Antiviral activity against HIV-1 in U87/CD4/CCR5 cells expressing HIV-1-envelope-protein assessed as decreased cell-cell fusion at 300 nM. Type of data set: functional. The arrangement: scale not given: the % may be the effect or the level left.
Data set [10] in a line: Binding affinity to AMPK (unknown origin). Further details: species or system Homo sapiens.
The test system of another data set is SARS-CoV. Kind of data set: microbe, parasite or virus in culture. The note with it: Severe acute respiratory syndrome-related coronavirus, Vero C1008, 50 h.
Data set [11] concerns Influenza A virus. Kind of data set: Antiviral activity against Influenza A virus (A/WSN/33 (H1N1)). The class given is functional, organism-based.
For data set [12], the system named is Influenza B virus. Kind of data set: Antiviral activity against Influenza B virus B/Lee/40. Type of data set: functional, organism-based.
Data set [13] deals with Influenza A virus. Briefly: Antiviral activity against Influenza A virus (A/Udorn/72 (H3N2)). Type of data set: functional, organism-based.
Data set [14] concerns Influenza A virus. Briefly: Antiviral activity against Influenza A virus A/Equine/2/MIAMI/1/63 (H3N8)). The class given is functional, organism-based.
For data set [15], the system named is Influenza A virus. Kind of data set: Antiviral activity against Influenza A virus (A/PR/8/34 (H1N1)). Type of data set: functional, organism-based.
The test system of data set [16] is Influenza B virus. Kind of data set: Antiviral activity against Influenza B virus B/MD/59. Type of data set: functional, organism-based.
A further data set concerns Parainfluenza virus 5. Kind of data set: Antiviral activity against PIV5. Type of data set: functional, organism-based.
The subject of data set [17] is Middle East respiratory syndrome-related coronavirus. Kind of data set: microbe, parasite or virus in culture. As to conditions: Vero.
Data set [18] shares this test system. Kind of data set: Antiviral activity against MERS-CoV infected in human HUh-7 cells at 0.1 to 10 uM. The class given is functional. The note with it: dose 0.1-10 µM.
The nature of data set [19]: Inhibition of PDGFR (unknown origin). The arrangement: species or system Homo sapiens.
For data set [20], the target named is High affinity nerve growth factor receptor (Homo sapiens, UniProt P04629). Kind of data set: Inhibition of TrKA (unknown origin).
High affinity nerve growth factor receptor, sequence (P04629 whole entry): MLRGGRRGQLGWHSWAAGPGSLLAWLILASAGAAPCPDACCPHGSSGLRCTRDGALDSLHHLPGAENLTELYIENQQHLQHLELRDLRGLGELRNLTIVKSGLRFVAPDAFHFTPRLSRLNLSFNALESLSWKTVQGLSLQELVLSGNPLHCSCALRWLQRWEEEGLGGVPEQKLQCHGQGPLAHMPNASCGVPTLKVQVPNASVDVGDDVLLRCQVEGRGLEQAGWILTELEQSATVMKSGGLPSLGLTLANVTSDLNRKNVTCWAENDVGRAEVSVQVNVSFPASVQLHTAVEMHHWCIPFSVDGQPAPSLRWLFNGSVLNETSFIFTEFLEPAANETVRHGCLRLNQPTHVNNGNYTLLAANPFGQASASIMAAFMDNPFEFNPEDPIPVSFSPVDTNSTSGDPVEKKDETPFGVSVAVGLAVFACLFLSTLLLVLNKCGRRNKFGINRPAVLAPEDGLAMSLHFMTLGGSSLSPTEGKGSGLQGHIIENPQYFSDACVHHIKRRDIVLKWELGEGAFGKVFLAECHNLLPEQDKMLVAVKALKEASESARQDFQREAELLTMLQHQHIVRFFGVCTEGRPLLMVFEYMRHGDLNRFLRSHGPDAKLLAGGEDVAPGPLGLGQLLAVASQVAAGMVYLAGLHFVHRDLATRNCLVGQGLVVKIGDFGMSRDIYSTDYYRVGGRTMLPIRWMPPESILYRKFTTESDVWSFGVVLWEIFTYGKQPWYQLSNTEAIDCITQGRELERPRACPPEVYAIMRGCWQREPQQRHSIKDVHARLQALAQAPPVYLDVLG
Data set [21] is described as follows: Inhibition of MEK (unknown origin). The arrangement: species or system Homo sapiens.
For data set [22], the target named is Dual specificity mitogen-activated protein kinase kinase 1 (Homo sapiens, UniProt Q02750).

1-phosphatidylinositol 3-phosphate 5-kinase, sequence (Q9Y2I7 whole entry): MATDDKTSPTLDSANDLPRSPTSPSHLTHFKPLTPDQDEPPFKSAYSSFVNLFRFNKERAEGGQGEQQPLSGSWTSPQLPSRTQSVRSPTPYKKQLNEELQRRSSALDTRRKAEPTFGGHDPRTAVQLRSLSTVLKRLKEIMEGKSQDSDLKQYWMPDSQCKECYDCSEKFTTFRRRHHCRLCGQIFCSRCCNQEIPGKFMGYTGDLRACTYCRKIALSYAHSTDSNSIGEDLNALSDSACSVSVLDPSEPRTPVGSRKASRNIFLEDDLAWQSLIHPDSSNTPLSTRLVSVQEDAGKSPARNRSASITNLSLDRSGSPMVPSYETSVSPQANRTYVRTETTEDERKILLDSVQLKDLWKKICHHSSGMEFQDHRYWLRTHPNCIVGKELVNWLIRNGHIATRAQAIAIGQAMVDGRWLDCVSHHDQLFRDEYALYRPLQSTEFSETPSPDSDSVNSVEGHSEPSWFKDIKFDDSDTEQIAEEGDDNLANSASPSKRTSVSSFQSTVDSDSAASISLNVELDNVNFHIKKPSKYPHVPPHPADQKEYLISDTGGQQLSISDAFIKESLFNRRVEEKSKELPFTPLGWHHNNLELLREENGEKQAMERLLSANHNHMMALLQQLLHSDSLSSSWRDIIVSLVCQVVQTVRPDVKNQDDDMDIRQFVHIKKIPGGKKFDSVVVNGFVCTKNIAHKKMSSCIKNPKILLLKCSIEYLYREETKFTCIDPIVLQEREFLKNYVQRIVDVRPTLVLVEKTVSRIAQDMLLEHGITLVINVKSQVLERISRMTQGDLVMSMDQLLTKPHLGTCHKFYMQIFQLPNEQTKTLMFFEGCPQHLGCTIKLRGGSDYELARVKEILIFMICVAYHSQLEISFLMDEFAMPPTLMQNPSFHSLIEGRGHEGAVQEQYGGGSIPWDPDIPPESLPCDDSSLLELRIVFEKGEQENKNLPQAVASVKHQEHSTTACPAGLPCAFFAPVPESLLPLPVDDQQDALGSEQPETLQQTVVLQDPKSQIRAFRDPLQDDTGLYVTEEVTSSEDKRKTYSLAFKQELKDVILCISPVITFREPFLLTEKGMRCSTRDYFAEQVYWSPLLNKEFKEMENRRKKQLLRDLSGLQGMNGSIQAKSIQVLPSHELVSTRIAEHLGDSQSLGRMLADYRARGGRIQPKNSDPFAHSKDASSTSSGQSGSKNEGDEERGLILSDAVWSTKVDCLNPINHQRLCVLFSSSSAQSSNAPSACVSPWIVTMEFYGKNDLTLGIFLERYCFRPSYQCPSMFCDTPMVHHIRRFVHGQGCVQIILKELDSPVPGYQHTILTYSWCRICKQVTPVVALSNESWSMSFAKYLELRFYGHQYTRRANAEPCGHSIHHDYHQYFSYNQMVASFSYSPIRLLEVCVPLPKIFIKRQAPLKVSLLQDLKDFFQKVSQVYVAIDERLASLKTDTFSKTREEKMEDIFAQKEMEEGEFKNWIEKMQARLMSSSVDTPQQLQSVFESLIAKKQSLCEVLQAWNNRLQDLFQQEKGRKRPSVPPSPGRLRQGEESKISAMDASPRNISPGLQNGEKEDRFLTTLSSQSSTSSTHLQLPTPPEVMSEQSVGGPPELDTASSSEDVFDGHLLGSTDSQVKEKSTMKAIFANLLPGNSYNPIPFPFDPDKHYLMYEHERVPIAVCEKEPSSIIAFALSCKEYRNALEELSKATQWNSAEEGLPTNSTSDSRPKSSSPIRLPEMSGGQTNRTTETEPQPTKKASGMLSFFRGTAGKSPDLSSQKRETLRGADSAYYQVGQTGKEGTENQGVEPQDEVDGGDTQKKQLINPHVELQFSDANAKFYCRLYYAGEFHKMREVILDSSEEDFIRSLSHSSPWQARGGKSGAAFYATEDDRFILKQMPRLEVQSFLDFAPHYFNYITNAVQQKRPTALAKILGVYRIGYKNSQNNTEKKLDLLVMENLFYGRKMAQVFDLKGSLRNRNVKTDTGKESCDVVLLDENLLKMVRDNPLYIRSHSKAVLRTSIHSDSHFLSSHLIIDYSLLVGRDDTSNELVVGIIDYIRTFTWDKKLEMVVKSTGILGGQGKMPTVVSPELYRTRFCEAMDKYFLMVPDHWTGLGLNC
BMP-2-inducible protein kinase, sequence (Q9NSY1 whole entry): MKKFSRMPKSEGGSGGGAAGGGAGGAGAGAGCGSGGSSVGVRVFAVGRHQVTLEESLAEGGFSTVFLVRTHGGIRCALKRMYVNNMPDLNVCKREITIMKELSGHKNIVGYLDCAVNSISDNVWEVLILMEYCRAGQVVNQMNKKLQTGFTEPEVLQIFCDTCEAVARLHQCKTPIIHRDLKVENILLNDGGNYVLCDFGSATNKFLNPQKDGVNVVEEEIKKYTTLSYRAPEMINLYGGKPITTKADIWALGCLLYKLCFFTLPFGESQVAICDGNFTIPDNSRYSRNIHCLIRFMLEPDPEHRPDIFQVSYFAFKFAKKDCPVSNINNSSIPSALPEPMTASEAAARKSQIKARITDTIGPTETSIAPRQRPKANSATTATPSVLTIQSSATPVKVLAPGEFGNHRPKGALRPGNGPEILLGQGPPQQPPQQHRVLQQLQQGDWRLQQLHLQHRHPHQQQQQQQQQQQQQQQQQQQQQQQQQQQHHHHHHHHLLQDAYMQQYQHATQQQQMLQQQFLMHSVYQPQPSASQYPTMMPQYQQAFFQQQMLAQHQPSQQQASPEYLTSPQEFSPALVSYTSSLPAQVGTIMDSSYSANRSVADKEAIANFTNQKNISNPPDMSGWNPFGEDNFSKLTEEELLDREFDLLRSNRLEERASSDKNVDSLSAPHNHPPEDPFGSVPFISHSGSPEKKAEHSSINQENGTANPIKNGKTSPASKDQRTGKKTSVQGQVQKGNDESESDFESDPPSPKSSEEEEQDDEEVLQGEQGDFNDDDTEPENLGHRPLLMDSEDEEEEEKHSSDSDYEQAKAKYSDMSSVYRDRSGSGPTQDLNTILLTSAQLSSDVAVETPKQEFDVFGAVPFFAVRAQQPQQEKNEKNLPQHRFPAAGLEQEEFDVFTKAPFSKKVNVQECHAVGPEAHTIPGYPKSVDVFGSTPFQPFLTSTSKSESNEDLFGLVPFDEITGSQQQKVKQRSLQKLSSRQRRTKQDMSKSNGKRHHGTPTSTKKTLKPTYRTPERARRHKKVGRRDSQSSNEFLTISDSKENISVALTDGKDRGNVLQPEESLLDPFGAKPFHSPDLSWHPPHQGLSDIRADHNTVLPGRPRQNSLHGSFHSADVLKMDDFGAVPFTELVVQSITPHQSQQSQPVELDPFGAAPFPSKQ

For `COc1cc(O)c2c(c1)/C=C/C[C@H](O)[C@H](O)C(=O)/C=C\C[C@H](C)OC2=O`, the Kd in data set [1] came out at 0.0038 µM.

In the case of `CC(=O)Nc1ccc(C(C)C(=O)Nc2ncc(C(C)C)s2)cc1` (configuration not stated), the IC50 in the data set with Zika virus was found to be 1.72 µM; in data set [2], 0.031 µM. Consider `COc1ccc(-c2cnc3[nH]cc(C#Cc4cccnc4)c3c2)cc1OC`, for which, in [3], the Kd came out at 0.004 µM. On the same count and under the same terms, to `CC(C)C(=O)Nc1n[nH]c2cc(-c3cccc(NS(=O)(=O)C4CC4)c3)ccc12` belongs 18 µM. For `COc1cc(N(C)c2ccnc3ccc(C(F)(F)F)cc23)cc(OC)c1OC`, the Kd in data set [4] was 2.5 µM.

As for `Fc1ccc(N2CCCCC2)c(NC(=S)c2ccncc2)c1`, the half-maximal effective concentration (EC50) in the data set with Human alphaherpesvirus 1 was 0.69 µM. Consider `CC(=O)c1cccc(-c2cc(Nc3ccc(OC(F)(F)F)cc3)ncn2)c1`, for which the IC50 in data set [5] stood at 0.138 µM; in the data set with dengue virus type 1 it was 5 µM; in the data set with dengue virus type 2, 5 µM; in the data set with dengue virus type 3, 5 µM; with dengue virus type 4, 5 µM. Turning to `COc1ccccc1-c1cnc2ccc(N3CC[C@H](N(C)C(=O)C(C)C)C3)nn12`, the Kd in [3] worked out at 0.001 µM. `Ic1cccc(/C=N/Nc2nc(N3CCOCC3)nc(N(c3ccccc3)c3ccccc3)n2)c1` showed a half-inhibitory concentration (IC50) in [6] of 0.009 µM. As for `COc1ccccc1-c1cnc2ccc(N3CC[C@H](N(C)C(=O)C(C)(C)C)C3)nn12`, the Kd in data set [3] is 0.001 µM.

For `C1=Nc2ccccc2/C1=C/NNc1nc(Nc2ccccc2)nc(N2CCOCC2)n1`, in data set [7], the half-maximal inhibitory concentration (IC50) was 0.014 µM. Take `CCN1CCN(Cc2ccc(Nc3ncc(F)c(-c4cc(F)c5nc(C)n(C(C)C)c5c4)n3)nc2)CC1` [ABEMACICLIB]: inhibition in the data set on SARS-CoV-2 was half-maximal at 6600 µM (IC50). In addition, the 50% cytotoxic concentration (CC50) in data set [8] was > 50 µM. For the compound `Cc1nc(Nc2ncc(C(=O)Nc3c(C)cccc3Cl)s2)cc(N2CCN(CCO)CC2)n1.O` [DASATINIB], in data set [9], the Activity came out at 93%. `c1cc(-c2cnn3cc(-c4ccc(OCCN5CCCCC5)cc4)cnc23)ccn1` [DORSOMORPHIN] yielded an IC50 in data set [10] of 0.109 µM. Consider `Cc1ccc(NC(=O)c2ccc(CN3CCN(C)CC3)cc2)cc1Nc1nccc(-c2cccnc2)n1` [IMATINIB], for which a half-maximal effect with SARS-CoV (EC50) was put at 2.1 µM. On the same count and under the same terms, the value for `Cc1cn(-c2cc(NC(=O)c3ccc(C)c(Nc4nccc(-c5cccnc5)n4)c3)cc(C(F)(F)F)c2)cn1` [NILOTINIB] was 2.1 µM. As to `COc1ccc(Cc2nccc3cc(OC)c(OC)cc23)cc1OC` [PAPAVERINE], the IC50 in the data set with Influenza A virus [11], with Influenza B virus [12], in the data set with Influenza A virus [13], in the data set with Influenza A virus [14], in the data set on Influenza A virus [15] and in the data set with Influenza B virus [16] was 2 µM throughout. In the data set with Parainfluenza virus 5, this compound showed an IC50 of 2 µM.

In data set [17], `CN1CCN(CCOc2cc(OC3CCOCC3)c3c(Nc4c(Cl)ccc5c4OCO5)ncnc3c2)CC1` [SARACATINIB] returned a half-maximal effective concentration (EC50) of 2.9 µM.

On to `Cn1cnc2c(F)c(Nc3ccc(Br)cc3Cl)c(C(=O)NOCCO)cc21` [SELUMETINIB], for which, in data set [18], the Activity was >95%. `CNC(=O)c1cc(Oc2ccc(NC(=O)Nc3ccc(Cl)c(C(F)(F)F)c3)cc2)ccn1` [SORAFENIB] came in with a half-maximal inhibitory concentration (IC50) in data set [19] of 0.02 µM. Regarding `CC(=O)Nc1cccc(-n2c(=O)n(C3CC3)c(=O)c3c(Nc4ccc(I)cc4F)n(C)c(=O)c(C)c32)c1` [TRAMETINIB], the Activity in [18] is >95%. In [19], `CC(C)(C)c1cc(C=C(C#N)C#N)cc(C(C)(C)C)c1O` [TYRPHOSTIN A9] yielded an IC50 of 0.5 µM. In [20], `CC(C)(C)c1cc(/C=C(\C#N)C(N)=S)cc(C(C)(C)C)c1O` [TYRPHOSTIN AG 879] had an IC50 of 10 µM. For the compound `O=C(O)c1ccc(F)c(F)c1Nc1ccc(I)cc1Cl` [ZAPNOMETINIB], the concentration for half-maximal inhibition (IC50) in data set [21] and in data set [22] was 0.00573 µM in each case.
